Reference: ChEMBL document CHEMBL5137050, “Hematopoietic Progenitor Kinase 1 in Tumor Immunology: A Medicinal Chemistry Perspective” (J Med Chem, 2022)

Key:
[1] = target: T1, Tyrosine-protein kinase ITK/TSK (Homo sapiens, UniProt Q08881); test: Inhibition of ITK (unknown origin)
T1 sequence (Q08881 whole entry): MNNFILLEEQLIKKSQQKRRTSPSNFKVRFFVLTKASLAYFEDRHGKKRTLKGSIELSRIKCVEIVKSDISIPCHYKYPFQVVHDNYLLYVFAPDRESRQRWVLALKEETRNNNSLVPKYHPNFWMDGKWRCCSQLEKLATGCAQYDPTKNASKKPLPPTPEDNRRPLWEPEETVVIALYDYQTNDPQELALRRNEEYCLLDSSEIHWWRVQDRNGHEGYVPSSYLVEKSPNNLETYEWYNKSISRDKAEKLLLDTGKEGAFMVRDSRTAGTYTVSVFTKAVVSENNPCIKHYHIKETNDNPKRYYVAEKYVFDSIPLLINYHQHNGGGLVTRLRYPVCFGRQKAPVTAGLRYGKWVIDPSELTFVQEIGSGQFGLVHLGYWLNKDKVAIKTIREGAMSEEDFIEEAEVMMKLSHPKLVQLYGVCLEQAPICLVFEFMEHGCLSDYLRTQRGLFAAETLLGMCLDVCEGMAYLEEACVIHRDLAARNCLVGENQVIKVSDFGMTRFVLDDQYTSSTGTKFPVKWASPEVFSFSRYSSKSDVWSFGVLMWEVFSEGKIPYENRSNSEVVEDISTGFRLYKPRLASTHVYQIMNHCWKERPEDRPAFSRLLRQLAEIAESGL

[2] = target: T2, Mitogen-activated protein kinase kinase kinase kinase 1 (Homo sapiens, UniProt Q92918); test: Inhibition of full-length unphosphorylated HPK1 (unknown origin) by scintillation proximity assay
[3] = target: T2, Mitogen-activated protein kinase kinase kinase kinase 1; test: Inhibition of full-length phosphorylated HPK1 (unknown origin)
[4] = target: T3, Tyrosine-protein kinase ZAP-70 (Homo sapiens, UniProt P43403); test: Inhibition of ZAP70 (unknown origin)
T3 sequence (P43403 whole entry): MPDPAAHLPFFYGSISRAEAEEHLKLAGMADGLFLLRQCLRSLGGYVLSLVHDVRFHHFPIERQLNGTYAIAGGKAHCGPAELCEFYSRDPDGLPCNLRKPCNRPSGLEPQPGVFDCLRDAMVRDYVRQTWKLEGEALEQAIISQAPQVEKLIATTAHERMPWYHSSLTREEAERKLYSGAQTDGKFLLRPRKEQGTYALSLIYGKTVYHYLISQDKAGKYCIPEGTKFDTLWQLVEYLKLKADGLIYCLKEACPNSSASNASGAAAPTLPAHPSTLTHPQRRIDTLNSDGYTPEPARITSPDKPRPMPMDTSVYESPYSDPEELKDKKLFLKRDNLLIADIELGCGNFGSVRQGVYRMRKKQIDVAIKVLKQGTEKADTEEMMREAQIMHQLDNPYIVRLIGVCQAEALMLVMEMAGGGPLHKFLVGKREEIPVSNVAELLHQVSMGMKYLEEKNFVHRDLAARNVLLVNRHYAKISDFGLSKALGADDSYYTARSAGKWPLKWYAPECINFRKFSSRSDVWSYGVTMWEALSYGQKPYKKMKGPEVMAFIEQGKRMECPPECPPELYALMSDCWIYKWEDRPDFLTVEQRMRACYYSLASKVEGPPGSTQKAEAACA

[5] = target: Tyrosine-protein kinase Lck (Homo sapiens, UniProt P06239); test: Inhibition of LCK (unknown origin)
[6] = target: T2, Mitogen-activated protein kinase kinase kinase kinase 1; test: Inhibition of HPK1 (unknown origin) preincubated for 15 mins measured after 90 mins by ADP-Glo kinase assay
[7] = target: T2, Mitogen-activated protein kinase kinase kinase kinase 1; test: Inhibition of HPK1 in human Jurkat E6.1 cells assessed as inhibition of SLP76 phosphorylation treated for 4 hrs by HTRF assay; assay type: cell-based

T2 sequence (Q92918 whole entry): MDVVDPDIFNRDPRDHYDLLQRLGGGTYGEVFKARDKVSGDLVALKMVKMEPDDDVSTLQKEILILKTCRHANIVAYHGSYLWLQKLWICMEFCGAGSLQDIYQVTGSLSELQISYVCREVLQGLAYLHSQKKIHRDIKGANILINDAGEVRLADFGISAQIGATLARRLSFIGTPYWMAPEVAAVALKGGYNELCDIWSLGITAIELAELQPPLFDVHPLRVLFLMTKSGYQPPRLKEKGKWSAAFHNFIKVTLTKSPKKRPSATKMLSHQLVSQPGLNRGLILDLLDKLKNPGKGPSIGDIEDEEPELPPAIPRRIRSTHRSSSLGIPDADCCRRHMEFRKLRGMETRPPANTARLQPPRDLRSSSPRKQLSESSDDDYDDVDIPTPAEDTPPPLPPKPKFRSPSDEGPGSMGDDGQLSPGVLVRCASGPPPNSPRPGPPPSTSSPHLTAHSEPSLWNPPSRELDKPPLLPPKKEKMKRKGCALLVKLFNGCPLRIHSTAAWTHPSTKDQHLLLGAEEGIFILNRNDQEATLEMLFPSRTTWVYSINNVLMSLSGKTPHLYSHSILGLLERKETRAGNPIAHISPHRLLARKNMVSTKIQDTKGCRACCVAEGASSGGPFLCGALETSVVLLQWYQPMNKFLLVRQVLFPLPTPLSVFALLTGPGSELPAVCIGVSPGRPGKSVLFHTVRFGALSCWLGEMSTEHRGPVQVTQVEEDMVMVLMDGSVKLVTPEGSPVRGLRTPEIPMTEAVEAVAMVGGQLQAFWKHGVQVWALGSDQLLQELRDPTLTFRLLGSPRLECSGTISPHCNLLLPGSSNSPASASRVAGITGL
Chain of Tyrosine-protein kinase Lck (P06239 whole entry): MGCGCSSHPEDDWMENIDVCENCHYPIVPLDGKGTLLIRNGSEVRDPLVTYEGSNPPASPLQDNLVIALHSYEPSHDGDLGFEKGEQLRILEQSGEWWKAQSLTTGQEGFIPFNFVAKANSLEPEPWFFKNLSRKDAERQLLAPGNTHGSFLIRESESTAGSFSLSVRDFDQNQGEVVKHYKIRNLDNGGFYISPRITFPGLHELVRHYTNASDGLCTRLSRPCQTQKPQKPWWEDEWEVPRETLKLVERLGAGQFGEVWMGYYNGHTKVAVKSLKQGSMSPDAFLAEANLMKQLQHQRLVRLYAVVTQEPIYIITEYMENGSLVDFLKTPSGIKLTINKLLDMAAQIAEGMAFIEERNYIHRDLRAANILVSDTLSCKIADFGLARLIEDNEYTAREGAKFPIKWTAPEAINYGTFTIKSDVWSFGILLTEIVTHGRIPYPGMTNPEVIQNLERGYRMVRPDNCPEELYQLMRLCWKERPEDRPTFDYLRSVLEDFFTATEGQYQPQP

| Compound | IC50 [1] | IC50 [2] | IC50 [3] | IC50 [4] | IC50 [5] | IC50 [6] | IC50 [7] |
| --- | --- | --- | --- | --- | --- | --- | --- |
| Cc1[nH]c2nnc(C)n2c(=O)c1CC(=O)Nc1ncc(Cc2ccccc2F)s1 | > 49.5 µM | 1200 nM | 29 µM | > 49.5 µM | > 49.5 µM | – | – |
| CN1CCC(c2ncc(-c3cnc(N)c(OCc4cccc(C#CC(C)(C)O)c4)c3)s2)CC1 | – | – | – | – | – | < 100 nM | < 1000 nM |
